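Interpolation was linear, between the two tested concentrations surrounding the appropriate level; five concentrations were tested over 48 hours in 96-well plates. GI50: concentration for 50% inhibition of growth. The concentration for full growth arrest is given as TGI.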

Common to all, as to test: NCI tumour cell line growth inhibition, 48 h
The test system of test [1] is DU-145 prostate.
For test [2], the system named is HCC-2998 colon.
Test [3] concerns HCT-15 colon.
Test [4] concerns HOP-62 NSCLC.
Test [5] concerns KM12 colon.
In test [6] the test system is NCI-H522 lung.
The subject of test [7] is OVCAR-4 ovarian.
In test [8] the test system is OVCAR-5 ovarian.
The test system of test [9] is SF-295 CNS.
Test [10] deals with HS 578T breast.

As for `CC(=O)O[C@H]1CC[C@@]2(C)C(=CC[C@@H]3[C@@H]2CC[C@]2(C)c4nc(Cl)ccc4C[C@@H]32)C1`, the TGI in test [1], in test [2], in [3], in [4], in test [5] and in test [6] was more than 100 µM in each case. The TGI was more than 100 µM in [7], more than 100 µM in test [8] and 83.3 µM in [9].
On to `OC(c1cccnc1Cl)c1nc2ccccc2c2ccnc(Cl)c12` (configuration not stated), for which the TGI in test [1] is more than 100 µM; in test [3], more than 100 µM; in test [4], 15.3 µM; in [10], 9.4 µM; in test [5], more than 100 µM; in [6], 5.92 µM. Also, the results for the TGI in [7], in test [8] and in [9] were more than 100 µM, more than 100 µM and 9.75 µM, respectively.
On to `COC(=O)C(=O)Cc1nc2ccccc2o1`, for which the TGI in test [2], in test [3], in [4], in test [5], in test [6] and in [7] was more than 100 µM in each case. Also, the TGI in test [8] was more than 100 µM.
As for `CCN(CC)C1Oc2cc3c(cc2C(c2cccc(OC)c2OC)C1C)OCO3` (configuration not stated), the TGI in [1] is 23.9 µM; in [2], 25.8 µM; in [3], more than 100 µM; in test [4] it was 30.2 µM; in [10], 28.8 µM; in test [5] it was 29.5 µM. Moreover, the TGI turned out to be 26.3 µM in [6], 48.6 µM in test [8] and 16.3 µM in test [9].
Regarding `O=C(O)c1ccccc1N=Nc1c(O)c(S(=O)(=O)O)cc2cc(S(=O)(=O)O)ccc12`, the TGI in test [1], in [2], in test [3], in [4], in [10] and in [5] was more than 100 µM in each case. Also, the TGI in test [8] and in test [9] was more than 100 µM each time.
Consider `COc1cc(Nc2nc3cc(C(F)(F)F)ccc3n3cccc23)cc(OC)c1OC`, for which the TGI in test [1], in [2], in [3], in [4], in test [10] and in [6] was more than 100 µM each time. The TGI in [8] and in test [9] was more than 100 µM each time.
With `COC(=O)Cc1c(-c2c(CC(=O)OC)c3ccccc3n2C2OC(COC(C)=O)C(OC(C)=O)C(OC(C)=O)C2OC(C)=O)[nH]c2ccccc12` (configuration not stated), the TGI in [1], in [2], in test [3], in [4], in test [5] and in test [6] was more than 100 µM in each case. Also, the TGI in [7], in [8] and in test [9] was more than 100 µM throughout.
As for `O=NN(CCF)C(=O)NC1CCSCC1`, the TGI in test [2], in [3], in test [4], in test [5], in test [6] and in test [7] was more than 100 µM in each case. Further, the TGI in test [8] and in test [9] was more than 100 µM throughout.
In the case of `COc1cccc(C2c3cc4c(cc3OC3COC(=O)C32)OCO4)c1OC` (configuration not stated), the TGI in test [1], in test [2], in test [3], in test [4], in test [10] and in test [5] was more than 100 µM in each case. Further, the TGI in test [7], in test [8] and in test [9] was more than 100 µM throughout.
As for `CN1CCN(P2(=S)Oc3ccc4ccccc4c3-c3c(ccc4ccccc34)O2)CC1`, the TGI in test [2] is 41.8 µM; in test [3], more than 100 µM; in test [4], more than 78.9 µM; in [5], 51.1 µM; in test [6], 64 µM; in test [7] it was more than 100 µM. In addition, the TGI in [8] and in test [9] was more than 100 µM each time.
For the compound `Cn1c(=O)n2n(c1=O)C(C)(C13CC4CC(CC(C4)C1)C3)C13CC4CC(CC1C4)CC23` (configuration not stated), the TGI in test [1], in test [3], in [4], in test [10], in test [5] and in test [8] was more than 100 µM throughout. Moreover, in test [9], the TGI was more than 100 µM.
Turning to `CCC1C(c2ccccc2O)c2cc3c(cc2OC1N1CCOCC1)OCO3` (configuration not stated), the TGI was found to be 28 µM in test [1]; 31 µM in [2]; 21.4 µM in test [3]; 28.8 µM in test [4]; 39.6 µM in [10]; 27.7 µM in test [5]. For the same compound, the TGI in [6] stood at 28 µM; in test [8] it was 28.7 µM; in test [9], 28.6 µM.
For the compound `COc1ccc(Nc2ccc([N+](=O)[O-])cc2[N+](=O)[O-])cc1CN(CCCl)CCCl`, the GI50 in [1] is 3.1 µM; in test [2] it was 2.15 µM; in [3] it was 2.48 µM; in test [4], 2.97 µM; in test [5], 3.66 µM; in test [6] it was 1.76 µM. Further, the GI50 is 2.7 µM in [7], 2.51 µM in test [8] and 2.79 µM in test [9]. The TGI in test [1] is 10.5 µM; in test [2], 6.9 µM; in test [3], 9.93 µM; in test [4], 20.9 µM; in test [5], 51 µM; in [6], 4.29 µM. Moreover, the TGI in test [7] is more than 100 µM; in [8], 8.94 µM; in test [9] it was 19.7 µM.
As for `CCN(CC)c1nnc(CCCCCCCCc2nnc(N(CC)CC)o2)o1`, the TGI in test [1], in test [3], in [4], in [5], in test [6] and in [7] was more than 100 µM throughout. In addition, the TGI in [8] and in test [9] was more than 100 µM throughout.
`C=C1CC[C@@H](C)[C@](C)(CCc2ccoc2)C/C=C\C=C/1C(=O)O`: the TGI in test [3], in test [4], in test [10], in test [5], in test [7] and in [8] was more than 100 µM in each case. In [9], this compound came in with a TGI of more than 100 µM.
Take `CC(C)(CCC(C)(C)N1OC1c1ccccc1)N1OC1c1ccccc1` (configuration not stated): the TGI in test [1] is more than 100 µM; in [2] it was more than 100 µM; in test [3], more than 100 µM; in test [10], more than 100 µM; in [5], more than 100 µM; in [6], 22.2 µM. Further, the TGI in test [7] and in test [9] was more than 100 µM throughout.
Regarding `O=C1CCCC/C1=C\c1ccc(Cl)c(Cl)c1`, the TGI in test [2] is 42.7 µM; in test [3], 39.3 µM; in [4], more than 100 µM; in test [7] it was 41 µM.
Turning to `CCN(CCN(CC)C(=O)Nc1ccccc1)C(=O)Nc1ccccc1`, the TGI in test [1], in [2], in test [3], in test [4], in [10] and in test [6] was more than 100 µM each time. Also, the TGI in test [8] and in test [9] was more than 100 µM each time.
Consider `CCCCCCCCCCCC[N+](CCCCCCCCCCCC)=C1SCCS1`, for which the TGI is 22.4 µM in [2]; 22.9 µM in test [3]; 30.5 µM in test [4]; 19.5 µM in [6]; 11.3 µM in test [7]; 25.1 µM in test [8]. This compound came in with a TGI in test [9] of 11.6 µM.
In the case of `CCOC(=O)c1c[nH]c2ccc3c(c2c1=O)S(=O)(=O)CC3` (tested in a mixture with another compound), the TGI in [2], in test [3], in test [4], in test [5], in test [6] and in test [7] was more than 100 µM throughout. Also, the TGI in test [8] and in [9] was more than 100 µM each time.
In the case of `CCc1ccc2c(c1)N(CC(C)CN(C)C)c1ccccc1S2` (configuration not stated), the TGI in [1] was 21.4 µM; in test [3], 17.8 µM; in test [4] it was 17.8 µM; in [10], 18.6 µM; in [5] it was 16.6 µM; in test [6], 7.96 µM. In addition, the TGI in test [7] worked out at 17 µM; in test [8], 19.9 µM; in [9] it was 21.5 µM.
On to `COc1cc(O)c2c(=O)c(OC)c(-c3ccc(OC)c(OC)c3)oc2c1`, for which the GI50 in test [1] is more than 100 µM; in test [2], 94.4 µM; in test [4], 58.5 µM; in test [7] it was 61.8 µM; in test [8], 23 µM; in [9], more than 100 µM. Moreover, the TGI in test [1] was more than 100 µM; in [2], more than 100 µM; in [3] it was more than 100 µM; in [4] it was more than 100 µM; in test [6], 15 µM; in [7], more than 100 µM. Further, the TGI in [8] and in test [9] was more than 100 µM in each case.
In the case of `C=C(C)[C@@H]1CC[C@]2(C(=O)OC)CC[C@]3(C)[C@H](CC[C@@H]4[C@@]5(C)CC[C@H](O)C(C)(C)[C@@H]5CC[C@]43C)[C@@H]12`, the TGI in test [1] was more than 100 µM; in [3], 50.6 µM; in [4] it was 41.3 µM; in [10] it was 56.5 µM; in test [5] it was more than 100 µM; in [6], 40.6 µM. Moreover, the TGI was determined as 55.4 µM in test [8] and 34.4 µM in [9].
On to `O=C1N[C@@H]2C(=C[C@H](O)[C@@H](O)[C@H]2O)c2cc3c(c(O)c21)OCO3`, for which the TGI in [2] was 0.0681 µM; in test [3], 8.16 µM; in test [4], 0.0538 µM; in test [5], 0.405 µM; in [7], 0.537 µM; in test [8], 0.294 µM. Moreover, in [9], the TGI was found to be 0.245 µM.
With `CO/N=C1/c2sccc2[C@H](NC(=O)C(Cc2ccccc2)NC(=O)OC(C)(C)C)[C@@H]1O` (some centres not stated), the TGI in [1], in [2], in test [3], in [4], in test [10] and in test [7] was more than 100 µM each time. For the same compound, the TGI in test [8] and in test [9] was more than 100 µM each time.
`CCCn1c(=O)c(N2CCN(c3ccccc3)CC2)nc2sc3ccccc3c21`: the TGI in test [1], in test [3], in [4], in test [10], in [5] and in test [6] was more than 100 µM throughout. The TGI in test [7], in test [8] and in [9] was more than 100 µM in each case.
On to `O=C1NC2CCCCCC2C12CCCCC2` (configuration not stated), for which the TGI in test [2], in test [3], in test [4], in test [5], in test [7] and in test [8] was more than 100 µM throughout. The TGI in [9] was more than 100 µM.
`O=C1Cc2c([nH]c3ccc(C(=O)O)cc23)-c2ccccc2N1`: the TGI in test [1], in test [2], in [3], in [4], in test [10] and in [5] was more than 100 µM throughout. For the same compound, the TGI in test [7], in test [8] and in [9] was more than 100 µM in each case.
As for `Cc1cc2c(cc1C)[n+](=O)c(C(=O)c1ccccc1)c(C(F)(F)F)n2[O-]`, the TGI in test [1] is 3.15 µM; in test [3], more than 34.4 µM; in [4], 2.34 µM; in [10], 15.1 µM; in test [5], 5.1 µM; in test [6], 12.9 µM. For the same compound, the results for the TGI in test [7], in test [8] and in test [9] were 1.71 µM, 10.2 µM and 10.6 µM, respectively.
As to `COc1ccc(CNc2cc(=O)n(C)c(=O)[nH]2)cc1`, the TGI in test [2], in test [3], in test [4], in [10], in [5] and in test [6] was more than 100 µM throughout. The TGI in test [7], in test [8] and in test [9] was more than 100 µM throughout.

The record behind these values is PubChem BioAssay (NCI).
